Results from a compilation of properties of binary mixtures (doi:10.1016/j.molliq.2022.118621).

Experiment: xn = mol fraction of the nth substance listed
Conditions: 100 kPa

## CC(O)C(=O)[O-].CCOCCn1cc[n+](C)c1 + O
288.15 K, x1 = 0.8091
  electrical conductivity: 0.243 S/m
  viscosity: 86.2 mPa·s
288.15 K, x1 = 0.8366
  electrical conductivity: 0.214 S/m
  viscosity: 93.5 mPa·s
288.15 K, x1 = 0.87
  electrical conductivity: 0.185 S/m
  viscosity: 103 mPa·s
288.15 K, x1 = 0.9014
  electrical conductivity: 0.157 S/m
  viscosity: 110.4 mPa·s
288.15 K, x1 = 0.9386
  electrical conductivity: 0.127 S/m
  viscosity: 119.7 mPa·s
288.15 K, x1 = 1
  electrical conductivity: 0.082 S/m
  viscosity: 132.7 mPa·s
293.15 K, x1 = 0.87
  electrical conductivity: 0.229 S/m
  viscosity: 80.3 mPa·s
293.15 K, x1 = 0.9386
  electrical conductivity: 0.172 S/m
  viscosity: 90.8 mPa·s
293.15 K, x1 = 1
  electrical conductivity: 0.123 S/m
  viscosity: 99.1 mPa·s
298.15 K, x1 = 0.8091
  electrical conductivity: 0.336 S/m
  viscosity: 52.9 mPa·s
298.15 K, x1 = 0.8366
  electrical conductivity: 0.306 S/m
  viscosity: 56.21 mPa·s
298.15 K, x1 = 0.9014
  electrical conductivity: 0.248 S/m
  viscosity: 63.93 mPa·s
298.15 K, x1 = 0.9386
  electrical conductivity: 0.218 S/m
  viscosity: 68.22 mPa·s
298.15 K, x1 = 1
  electrical conductivity: 0.171 S/m
  viscosity: 74.1 mPa·s
303.15 K, x1 = 0.8091
  electrical conductivity: 0.389 S/m
  viscosity: 41.86 mPa·s
303.15 K, x1 = 0.8366
  electrical conductivity: 0.358 S/m
  viscosity: 44.21 mPa·s
303.15 K, x1 = 0.87
  electrical conductivity: 0.33 S/m
  viscosity: 47.25 mPa·s
303.15 K, x1 = 0.9014
  electrical conductivity: 0.302 S/m
  viscosity: 49.83 mPa·s
303.15 K, x1 = 1
  electrical conductivity: 0.228 S/m
  viscosity: 56.72 mPa·s
308.15 K, x1 = 0.9014
  electrical conductivity: 0.397 S/m
  viscosity: 37.68 mPa·s
308.15 K, x1 = 0.9386
  electrical conductivity: 0.368 S/m
  viscosity: 40.01 mPa·s
308.15 K, x1 = 1
  electrical conductivity: 0.314 S/m
  viscosity: 43.14 mPa·s
313.15 K, x1 = 0.8091
  electrical conductivity: 0.572 S/m
  viscosity: 25.13 mPa·s
313.15 K, x1 = 0.8366
  electrical conductivity: 0.544 S/m
  viscosity: 26.5 mPa·s
313.15 K, x1 = 0.87
  electrical conductivity: 0.516 S/m
  viscosity: 28.21 mPa·s
313.15 K, x1 = 0.9014
  electrical conductivity: 0.488 S/m
  viscosity: 29.62 mPa·s
313.15 K, x1 = 0.9386
  electrical conductivity: 0.463 S/m
  viscosity: 31.44 mPa·s
313.15 K, x1 = 1
  electrical conductivity: 0.418 S/m
  viscosity: 33.82 mPa·s
318.15 K, x1 = 0.8091
  electrical conductivity: 0.713 S/m
  viscosity: 18.65 mPa·s
318.15 K, x1 = 0.8366
  electrical conductivity: 0.681 S/m
  viscosity: 19.82 mPa·s
318.15 K, x1 = 0.87
  electrical conductivity: 0.648 S/m
  viscosity: 21.2 mPa·s
318.15 K, x1 = 0.9386
  electrical conductivity: 0.587 S/m
  viscosity: 24.02 mPa·s
318.15 K, x1 = 1
  electrical conductivity: 0.536 S/m
  viscosity: 26.08 mPa·s

## CC(=O)[O-].CCOCCn1cc[n+](C)c1 + O
288.15 K, x1 = 0.8294
  electrical conductivity: 0.352 S/m
  viscosity: 41.8 mPa·s
288.15 K, x1 = 0.852
  electrical conductivity: 0.313 S/m
  viscosity: 42.73 mPa·s
288.15 K, x1 = 0.8822
  electrical conductivity: 0.271 S/m
  viscosity: 43.97 mPa·s
288.15 K, x1 = 0.9125
  electrical conductivity: 0.232 S/m
  viscosity: 45.18 mPa·s
288.15 K, x1 = 0.9447
  electrical conductivity: 0.195 S/m
  viscosity: 46.51 mPa·s
288.15 K, x1 = 1
  electrical conductivity: 0.13 S/m
  viscosity: 48.34 mPa·s
293.15 K, x1 = 0.8294
  electrical conductivity: 0.415 S/m
  viscosity: 33.23 mPa·s
293.15 K, x1 = 0.852
  electrical conductivity: 0.377 S/m
  viscosity: 33.91 mPa·s
293.15 K, x1 = 0.8822
  electrical conductivity: 0.329 S/m
  viscosity: 34.81 mPa·s
293.15 K, x1 = 1
  electrical conductivity: 0.18 S/m
  viscosity: 38.07 mPa·s
298.15 K, x1 = 0.8294
  electrical conductivity: 0.463 S/m
  viscosity: 26.38 mPa·s
298.15 K, x1 = 0.852
  electrical conductivity: 0.427 S/m
  viscosity: 26.91 mPa·s
298.15 K, x1 = 0.8822
  electrical conductivity: 0.384 S/m
  viscosity: 27.59 mPa·s
298.15 K, x1 = 0.9125
  electrical conductivity: 0.347 S/m
  viscosity: 28.28 mPa·s
298.15 K, x1 = 1
  electrical conductivity: 0.247 S/m
  viscosity: 30.01 mPa·s
303.15 K, x1 = 0.8294
  electrical conductivity: 0.551 S/m
  viscosity: 20.99 mPa·s
303.15 K, x1 = 0.852
  electrical conductivity: 0.513 S/m
  viscosity: 21.43 mPa·s
303.15 K, x1 = 0.8822
  electrical conductivity: 0.471 S/m
  viscosity: 22 mPa·s
303.15 K, x1 = 0.9125
  electrical conductivity: 0.431 S/m
  viscosity: 22.55 mPa·s
303.15 K, x1 = 1
  electrical conductivity: 0.329 S/m
  viscosity: 23.97 mPa·s
308.15 K, x1 = 0.8294
  electrical conductivity: 0.674 S/m
  viscosity: 16.9 mPa·s
308.15 K, x1 = 0.852
  electrical conductivity: 0.633 S/m
  viscosity: 17.25 mPa·s
308.15 K, x1 = 0.9125
  electrical conductivity: 0.544 S/m
  viscosity: 18.18 mPa·s
308.15 K, x1 = 0.9447
  electrical conductivity: 0.506 S/m
  viscosity: 18.66 mPa·s
308.15 K, x1 = 1
  electrical conductivity: 0.435 S/m
  viscosity: 19.35 mPa·s
313.15 K, x1 = 0.8294
  electrical conductivity: 0.804 S/m
  viscosity: 13.77 mPa·s
313.15 K, x1 = 0.9125
  electrical conductivity: 0.676 S/m
  viscosity: 14.84 mPa·s
313.15 K, x1 = 0.9447
  electrical conductivity: 0.638 S/m
  viscosity: 15.22 mPa·s
318.15 K, x1 = 0.8294
  electrical conductivity: 0.985 S/m
  viscosity: 11.31 mPa·s
318.15 K, x1 = 0.852
  electrical conductivity: 0.941 S/m
  viscosity: 11.54 mPa·s
318.15 K, x1 = 0.8822
  electrical conductivity: 0.887 S/m
  viscosity: 11.83 mPa·s
318.15 K, x1 = 0.9125
  electrical conductivity: 0.843 S/m
  viscosity: 12.15 mPa·s
318.15 K, x1 = 0.9447
  electrical conductivity: 0.797 S/m
  viscosity: 12.45 mPa·s
318.15 K, x1 = 1
  electrical conductivity: 0.719 S/m
  viscosity: 12.9 mPa·s
